Values after ≈ are worked out from the molar mass of the structure shown. Active and inactive are the calls of the source. The calls are words filed in the database; no cut-off is given here.
Columns and labels:
Streptococcus pneumoniae [1] = assay: Antibacterial activity against Streptococcus pneumoniae 994 expressing mef gene by NCCLS method; assay type: functional
Streptococcus pyogenes = assay: Antibacterial activity against Streptococcus pyogenes 19615 by NCCLS method; assay type: functional
Haemophilus influenzae = assay: Antibacterial activity against Haemophilus influenzae 38 by NCCLS method; assay type: functional
Moraxella catarrhalis = assay: Antibacterial activity against Moraxella catarrhalis 8176 by NCCLS method; assay type: functional
Streptococcus pneumoniae [2] = assay: Antibacterial activity against Streptococcus pneumoniae 6303 by NCCLS method; assay type: functional
Streptococcus pneumoniae [3] = assay: Antibacterial activity against Streptococcus pneumoniae 49619 by NCCLS method; assay type: functional
Streptococcus pneumoniae [4] = assay: Antibacterial activity against Streptococcus pneumoniae 3579 expressing erm gene by NCCLS method; assay type: functional
Streptococcus pneumoniae [5] = assay: Antibacterial activity against telethromycin-resistant Streptococcus pneumoniae 757 expressing erm gene by NCCLS method; assay type: functional
Streptococcus pneumoniae [6] = assay: Antibacterial activity against telethromycin-resistant Streptococcus pneumoniae 162 expressing erm gene by NCCLS method; assay type: functional
Streptococcus pneumoniae [7] = assay: Antibacterial activity against telethromycin-resistant Streptococcus pneumoniae 2840 expressing erm gene by NCCLS method; assay type: functional
Streptococcus pneumoniae [8] = assay: Antibacterial activity against telethromycin-resistant Streptococcus pneumoniae 3489 expressing erm gene by NCCLS method; assay type: functional
Streptococcus pneumoniae [9] = assay: Antibacterial activity against telethromycin-resistant Streptococcus pneumoniae B739 expressing erm gene by NCCLS method; assay type: functional
Streptococcus pneumoniae [10] = assay: Antibacterial activity against telethromycin-resistant Streptococcus pneumoniae 3271 expressing erm gene by NCCLS method; assay type: functional
Streptococcus pneumoniae [11] = assay: Antibacterial activity against telethromycin-resistant Streptococcus pneumoniae 217 expressing erm gene by NCCLS method; assay type: functional
Streptococcus pneumoniae [12] = assay: Antibacterial activity against telethromycin-resistant Streptococcus pneumoniae 3488 expressing erm gene by NCCLS method; assay type: functional
Streptococcus pneumoniae [13] = assay: Antibacterial activity against telethromycin-resistant Streptococcus pneumoniae AB14 expressing erm gene by NCCLS method; assay type: functional
Streptococcus pneumoniae [14] = assay: Antibacterial activity against telethromycin-resistant Streptococcus pneumoniae 5099 expressing erm gene by NCCLS method; assay type: functional
Streptococcus pneumoniae [15] = assay: Antibacterial activity against telethromycin-resistant Streptococcus pneumoniae 3390 expressing erm gene by NCCLS method; assay type: functional
Streptococcus pneumoniae [16] = assay: Antibacterial activity against telethromycin-resistant Streptococcus pneumoniae 5051 expressing erm gene by NCCLS method; assay type: functional
Streptococcus pneumoniae [17] = assay: Antibacterial activity against Streptococcus pneumoniae 3579 expressing erm gene infected in mouse systemic infection model; assay type: functional, organism-based
Streptococcus pneumoniae [18] = assay: Antibacterial activity against Streptococcus pneumoniae by NCCLS method; assay type: functional

Row | SMILES | MIC (Streptococcus pneumoniae [1]) [µg/mL] | MIC (Streptococcus pyogenes) [µg/mL] | MIC (Haemophilus influenzae) [µg/mL] | MIC (Moraxella catarrhalis) [µg/mL] | MIC (Streptococcus pneumoniae [2]) [µg/mL] | MIC (Streptococcus pneumoniae [3]) [µg/mL] | MIC (Streptococcus pneumoniae [4]) [µg/mL] | further results
1 | C=CCN(C)[C@H]1C[C@@H](C)O[C@@H](O[C@@H]2[C@@H](C)[C@H](OC(=O)Cc3cccnc3)[C@@H](C)C(=O)O[C@H](CC)[C@@]3(C)OC(=O)N(CCCCn4ccc5cccnc54)[C@@H]3[C@@H](C)C(=O)[C@H](C)C[C@@]2(C)OC)[C@@H]1O | 0.25 (≈ 0.268 µM) | 0.03 (≈ 0.0322 µM) | < 0.03 | 0.06 (≈ 0.0644 µM) | 0.06 (≈ 0.0644 µM) | 0.06 (≈ 0.0644 µM) | 8 (≈ 8.58 µM) | 
2 | C=CCN(C)[C@H]1C[C@@H](C)O[C@@H](O[C@@H]2[C@@H](C)[C@H](OC(=O)Cc3ccccn3)[C@@H](C)C(=O)O[C@H](CC)[C@@]3(C)OC(=O)N(CCCCn4cnc(-c5ccc(N)nc5)c4)[C@@H]3[C@@H](C)C(=O)[C@H](C)C[C@@]2(C)OC)[C@@H]1O | 0.125 (≈ 0.128 µM) | 2 (≈ 2.05 µM) |  | 0.125 (≈ 0.128 µM) | 0.06 (≈ 0.0616 µM) | 0.06 (≈ 0.0616 µM) | 0.25 (≈ 0.257 µM) | MIC (Streptococcus pneumoniae [5]): 0.06 µg/mL (≈ 0.0616 µM); MIC (Streptococcus pneumoniae [6]): 0.5 µg/mL (≈ 0.513 µM); MIC (Streptococcus pneumoniae [7]): 0.25 µg/mL (≈ 0.257 µM); MIC (Streptococcus pneumoniae [8]): 0.25 µg/mL (≈ 0.257 µM); MIC (Streptococcus pneumoniae [9]): 0.125 µg/mL (≈ 0.128 µM); MIC (Streptococcus pneumoniae [10]): 0.25 µg/mL (≈ 0.257 µM); MIC (Streptococcus pneumoniae [11]): 0.06 µg/mL (≈ 0.0616 µM); MIC (Streptococcus pneumoniae [12]): 0.03 µg/mL (≈ 0.0308 µM); MIC (Streptococcus pneumoniae [13]): 0.03 µg/mL (≈ 0.0308 µM); MIC (Streptococcus pneumoniae [14]): 0.03 µg/mL (≈ 0.0308 µM); MIC (Streptococcus pneumoniae [15]): 0.06 µg/mL (≈ 0.0616 µM); MIC (Streptococcus pneumoniae [16]): 0.03 µg/mL (≈ 0.0308 µM); Activity (Streptococcus pneumoniae [17]): Active
3 | CC[C@H]1OC(=O)[C@H](C)[C@@H](O[C@H]2C[C@@](C)(OC)[C@@H](O)[C@H](C)O2)[C@H](C)[C@@H](O[C@@H]2O[C@H](C)C[C@H](N(C)C)[C@H]2O)[C@](C)(OC)C[C@@H](C)C(=O)[C@H](C)[C@@H](O)[C@]1(C)O [CLARITHROMYCIN] | 0.5 (≈ 0.668 µM) | 0.125 (≈ 0.167 µM) | > 16 | 4 (≈ 5.35 µM) | 0.25 (≈ 0.334 µM) | 0.125 (≈ 0.167 µM) | 4 (≈ 5.35 µM) | MIC (Streptococcus pneumoniae [18]): 0.25 µg/mL (≈ 0.334 µM)
4 | C=CCN(C)[C@H]1C[C@@H](C)O[C@@H](O[C@@H]2[C@@H](C)[C@H](OC(=O)Cc3ccccn3)[C@@H](C)C(=O)O[C@H](CC)[C@@]3(C)OC(=O)N(CCCCn4cnc5ccncc54)[C@@H]3[C@@H](C)C(=O)[C@H](C)C[C@@]2(C)OC)[C@@H]1O | 0.125 (≈ 0.134 µM) | 0.125 (≈ 0.134 µM) | 0.06 (≈ 0.0643 µM) | 0.06 (≈ 0.0643 µM) | 0.125 (≈ 0.134 µM) | 0.125 (≈ 0.134 µM) | 0.25 (≈ 0.268 µM) | 
5 | CC[C@H]1OC(=O)[C@H](C)[C@@H](OC(=O)Cc2cccnc2)[C@H](C)[C@@H](O[C@@H]2O[C@H](C)C[C@H](N(C)CC)[C@H]2O)[C@](C)(OC)C[C@@H](C)C(=O)[C@H](C)[C@H]2N(CCCCn3cnc4ncccc43)C(=O)O[C@]12C | 0.25 (≈ 0.271 µM) | 0.03 (≈ 0.0326 µM) | < 0.03 | 0.25 (≈ 0.271 µM) | 0.06 (≈ 0.0651 µM) | 0.03 (≈ 0.0326 µM) | 2 (≈ 2.17 µM) | 
6 | C=CCN(C)[C@H]1C[C@@H](C)O[C@@H](O[C@@H]2[C@@H](C)[C@H](OC(=O)Cc3ccccn3)[C@@H](C)C(=O)O[C@H](CC)[C@@]3(C)OC(=O)N(CCCCn4cnc(-c5cncnc5)c4)[C@@H]3[C@@H](C)C(=O)[C@H](C)C[C@@]2(C)OC)[C@@H]1O | 0.06 (≈ 0.0625 µM) | 0.03 (≈ 0.0312 µM) | < 0.06 | 0.125 (≈ 0.13 µM) | 0.03 (≈ 0.0312 µM) | 0.03 (≈ 0.0312 µM) | 0.25 (≈ 0.26 µM) | 
7 | C=CCN(C)[C@H]1C[C@@H](C)O[C@@H](O[C@@H]2[C@@H](C)[C@H](OC(=O)Cc3ccccn3)[C@@H](C)C(=O)O[C@H](CC)[C@@]3(C)OC(=O)N(CCCCn4cnc(-c5cccnc5)c4)[C@@H]3[C@@H](C)C(=O)[C@H](C)C[C@@]2(C)OC)[C@@H]1O | 0.125 (≈ 0.13 µM) | 0.008 (≈ 0.00834 µM) | 0.125 (≈ 0.13 µM) | 0.125 (≈ 0.13 µM) | 0.015 (≈ 0.0156 µM) | 0.008 (≈ 0.00834 µM) | 0.25 (≈ 0.261 µM) | 
8 | C=CCN(C)[C@H]1C[C@@H](C)O[C@@H](O[C@@H]2[C@@H](C)[C@H](OC(=O)Cc3ccccn3)[C@@H](C)C(=O)O[C@H](CC)[C@@]3(C)OC(=O)N(CCCCn4cnc5cncnc54)[C@@H]3[C@@H](C)C(=O)[C@H](C)C[C@@]2(C)OC)[C@@H]1O | 0.125 (≈ 0.134 µM) | 0.06 (≈ 0.0642 µM) | < 0.06 | 0.125 (≈ 0.134 µM) | 0.06 (≈ 0.0642 µM) | 0.06 (≈ 0.0642 µM) | 0.25 (≈ 0.268 µM) | 
